In brackets after ≈: the same amount, converted by molar mass.
Assays:
[1] = Fraction unbound in Sprague-Dawley rat brain
[2] = biological target: T1, D(2) dopamine receptor (Homo sapiens, UniProt P14416); test: Displacement of [3H]-spiperone from human dopamine D2 receptor expressed in CHO-K1 cell membranes after 120 mins by liquid scintillation counter method
[3] = in vivo; details: Sprague-Dawley, rat, po
Description: Oral bioavailability in portal vein cannulated Sprague-Dawley rat model

[4] = biological target: T2, Muscarinic acetylcholine receptor M1 (Homo sapiens, UniProt P11229); test: Antagonist activity at recombinant human muscarinic M1 receptor expressed in CHO-K1 cells assessed as inhibition of acetylcholine induced calcium mobilization preincubated for 10 mins followed by acetylcholine addition measured after 1 hr by fluo-4 AM dye-based FLIPR assay; assay type: functional, cell-based
T2 sequence (P11229 whole entry): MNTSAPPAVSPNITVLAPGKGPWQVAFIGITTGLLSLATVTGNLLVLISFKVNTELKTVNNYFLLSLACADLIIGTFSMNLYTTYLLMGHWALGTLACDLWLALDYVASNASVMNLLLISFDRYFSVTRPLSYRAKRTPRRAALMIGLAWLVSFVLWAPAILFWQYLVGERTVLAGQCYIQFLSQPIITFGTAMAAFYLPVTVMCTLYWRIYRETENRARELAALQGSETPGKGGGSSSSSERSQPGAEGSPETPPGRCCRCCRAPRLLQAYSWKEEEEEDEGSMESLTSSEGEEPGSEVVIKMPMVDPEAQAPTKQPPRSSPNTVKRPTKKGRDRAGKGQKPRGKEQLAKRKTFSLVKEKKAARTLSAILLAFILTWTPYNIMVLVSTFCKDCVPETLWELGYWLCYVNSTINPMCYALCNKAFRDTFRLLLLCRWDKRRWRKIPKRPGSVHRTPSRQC

[5] = biological target: T3, Cytochrome P450 3A4 (Homo sapiens, UniProt P08684); test: Inhibition of recombinant human CYP3A4 expressed in baculosomes preincubated for 10 mins followed by cofactor addition measured every minute for 10 mins using 7-benzyloxyquinoline as substrate by CYPEX assay
T3 sequence (P08684 whole entry): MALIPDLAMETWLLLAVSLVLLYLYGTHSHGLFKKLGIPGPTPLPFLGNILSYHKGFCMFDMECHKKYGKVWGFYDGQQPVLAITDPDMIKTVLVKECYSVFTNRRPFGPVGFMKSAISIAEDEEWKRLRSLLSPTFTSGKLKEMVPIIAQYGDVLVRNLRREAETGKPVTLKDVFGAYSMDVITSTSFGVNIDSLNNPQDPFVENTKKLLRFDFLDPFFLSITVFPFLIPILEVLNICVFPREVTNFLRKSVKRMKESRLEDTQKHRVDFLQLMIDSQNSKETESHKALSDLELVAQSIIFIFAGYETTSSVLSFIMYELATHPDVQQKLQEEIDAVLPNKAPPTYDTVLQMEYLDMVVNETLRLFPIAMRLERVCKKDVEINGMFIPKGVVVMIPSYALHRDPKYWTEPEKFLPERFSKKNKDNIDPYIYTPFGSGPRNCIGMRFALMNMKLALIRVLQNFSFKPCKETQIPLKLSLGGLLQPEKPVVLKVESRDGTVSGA

[6] = biological target: Voltage-gated inwardly rectifying potassium channel KCNH2 (Homo sapiens, UniProt Q12809); test: Inhibition of human ERG tail current expressed in HEK293 cells after 5 mins by patch clamp assay
Chain of Voltage-gated inwardly rectifying potassium channel KCNH2 (Q12809 whole entry): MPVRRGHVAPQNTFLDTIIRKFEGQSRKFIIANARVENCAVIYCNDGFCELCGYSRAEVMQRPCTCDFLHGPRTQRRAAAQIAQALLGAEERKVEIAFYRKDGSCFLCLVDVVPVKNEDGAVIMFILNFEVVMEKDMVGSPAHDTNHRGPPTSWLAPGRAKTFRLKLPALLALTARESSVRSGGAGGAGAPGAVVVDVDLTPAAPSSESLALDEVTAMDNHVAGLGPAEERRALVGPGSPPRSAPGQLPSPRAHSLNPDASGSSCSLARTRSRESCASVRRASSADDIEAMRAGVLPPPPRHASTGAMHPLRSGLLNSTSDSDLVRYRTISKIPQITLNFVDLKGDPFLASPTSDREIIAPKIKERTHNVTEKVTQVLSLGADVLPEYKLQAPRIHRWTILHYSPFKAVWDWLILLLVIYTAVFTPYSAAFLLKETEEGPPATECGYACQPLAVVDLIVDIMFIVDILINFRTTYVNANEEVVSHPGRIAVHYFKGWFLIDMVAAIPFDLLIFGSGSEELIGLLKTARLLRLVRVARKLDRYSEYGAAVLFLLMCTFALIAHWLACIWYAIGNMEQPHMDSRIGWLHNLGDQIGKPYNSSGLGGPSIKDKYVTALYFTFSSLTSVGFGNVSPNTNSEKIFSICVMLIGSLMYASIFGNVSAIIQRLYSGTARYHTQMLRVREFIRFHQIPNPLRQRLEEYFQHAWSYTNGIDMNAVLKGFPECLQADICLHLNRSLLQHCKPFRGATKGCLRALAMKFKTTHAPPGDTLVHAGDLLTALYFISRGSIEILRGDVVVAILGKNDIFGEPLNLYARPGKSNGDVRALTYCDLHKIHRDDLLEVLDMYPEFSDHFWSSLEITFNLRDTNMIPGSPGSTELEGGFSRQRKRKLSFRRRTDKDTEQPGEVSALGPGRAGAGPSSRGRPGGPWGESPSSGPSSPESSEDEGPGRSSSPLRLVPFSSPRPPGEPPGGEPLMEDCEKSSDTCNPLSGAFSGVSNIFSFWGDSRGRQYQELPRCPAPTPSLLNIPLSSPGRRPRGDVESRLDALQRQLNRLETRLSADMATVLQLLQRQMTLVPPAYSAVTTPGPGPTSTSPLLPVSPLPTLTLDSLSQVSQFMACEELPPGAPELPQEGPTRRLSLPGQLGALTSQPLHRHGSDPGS

[7] = biological target: T3, Cytochrome P450 3A4; test: Inhibition of recombinant human CYP3A4 expressed in baculosomes preincubated for 10 mins followed by cofactor addition measured every minute for 10 mins using diethoxyflourescein as substrate by CYPEX assay
[8] = in vitro; details: human, liver microsomes, CLH
[9] = biological target: T4, D(3) dopamine receptor (Homo sapiens, UniProt P35462); test: Antagonist activity at human dopamine D3 receptor expressed in CHO-K1 cell membranes after 90 mins by [35S]GTP-gamma-S binding assay in presence of 3 nM quinelorane
T4 sequence (P35462 whole entry): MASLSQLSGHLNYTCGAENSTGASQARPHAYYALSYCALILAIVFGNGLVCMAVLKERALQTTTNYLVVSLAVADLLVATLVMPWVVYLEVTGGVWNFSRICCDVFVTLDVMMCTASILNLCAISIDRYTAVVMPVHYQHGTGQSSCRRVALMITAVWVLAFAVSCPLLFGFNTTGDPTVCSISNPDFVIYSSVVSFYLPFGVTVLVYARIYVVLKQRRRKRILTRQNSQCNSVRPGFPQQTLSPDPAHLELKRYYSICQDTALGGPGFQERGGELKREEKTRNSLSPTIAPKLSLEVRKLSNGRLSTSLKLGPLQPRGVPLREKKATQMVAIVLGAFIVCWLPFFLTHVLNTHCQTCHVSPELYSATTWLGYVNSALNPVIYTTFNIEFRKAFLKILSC

[10] = biological target: Cytochrome P450 2C9 (Homo sapiens, UniProt P11712); test: Inhibition of recombinant human CYP2C9 expressed in baculosomes preincubated for 10 mins followed by cofactor addition measured every minute for 10 mins using 7-methoxy-4-trifluoromethylcoumarin-3-acetic acid as substrate by CYPEX assay
Chain of Cytochrome P450 2C9 (P11712 whole entry): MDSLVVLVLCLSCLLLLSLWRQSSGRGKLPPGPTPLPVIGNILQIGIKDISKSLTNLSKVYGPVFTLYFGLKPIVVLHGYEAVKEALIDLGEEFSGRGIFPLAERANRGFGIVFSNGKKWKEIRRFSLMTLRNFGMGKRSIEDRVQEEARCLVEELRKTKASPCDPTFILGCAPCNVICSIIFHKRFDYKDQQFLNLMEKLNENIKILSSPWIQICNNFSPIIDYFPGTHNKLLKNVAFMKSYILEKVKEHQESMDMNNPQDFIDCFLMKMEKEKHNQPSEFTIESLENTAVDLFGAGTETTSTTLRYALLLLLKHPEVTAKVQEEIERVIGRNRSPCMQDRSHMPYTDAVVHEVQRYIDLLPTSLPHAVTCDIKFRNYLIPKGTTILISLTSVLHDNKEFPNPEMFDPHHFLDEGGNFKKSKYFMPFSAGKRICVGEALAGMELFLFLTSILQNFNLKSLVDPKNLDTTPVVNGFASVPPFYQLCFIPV

[11] = biological target: T5, Cytochrome P450 1A2 (Homo sapiens, UniProt P05177); test: Inhibition of recombinant human CYP1A2 expressed in baculosomes preincubated for 10 mins followed by cofactor addition measured every minute for 10 mins using ethoxyresorufin as substrate by CYPEX assay
T5 sequence (P05177 whole entry): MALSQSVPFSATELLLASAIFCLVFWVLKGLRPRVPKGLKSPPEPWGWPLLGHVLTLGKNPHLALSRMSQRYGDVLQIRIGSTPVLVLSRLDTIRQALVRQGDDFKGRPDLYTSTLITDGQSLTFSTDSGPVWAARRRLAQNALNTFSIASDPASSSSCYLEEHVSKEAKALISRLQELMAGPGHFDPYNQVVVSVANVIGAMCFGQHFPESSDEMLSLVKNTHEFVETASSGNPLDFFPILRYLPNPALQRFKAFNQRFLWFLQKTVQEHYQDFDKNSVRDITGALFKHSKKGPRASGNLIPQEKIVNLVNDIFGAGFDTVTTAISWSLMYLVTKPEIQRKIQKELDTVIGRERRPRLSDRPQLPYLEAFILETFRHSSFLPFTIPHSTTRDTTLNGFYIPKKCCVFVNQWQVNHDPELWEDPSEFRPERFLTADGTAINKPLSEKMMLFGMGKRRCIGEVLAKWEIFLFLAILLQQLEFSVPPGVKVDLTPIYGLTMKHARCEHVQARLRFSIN

[12] = Clearance in portal vein cannulated Sprague-Dawley rat blood; details: whole blood
[13] = in vitro; details: rat, liver microsomes, CLH
[14] = Half life in portal vein cannulated Sprague-Dawley rat model; details: in vivo
[15] = Volume of distribution at steady state in portal vein cannulated Sprague-Dawley rat model; details: in vivo
[16] = Efflux ratio of apparent permeability across basolateral to apical side in human Caco2 cells; assay type: ADME, cell-based; details: Caco-2
[17] = biological target: Muscarinic acetylcholine receptor M3 (Homo sapiens, UniProt P20309); test: Antagonist activity at recombinant human muscarinic M3 receptor expressed in CHO-K1 cells assessed as inhibition of acetylcholine induced calcium mobilization preincubated for 10 mins followed by acetylcholine addition measured after 1 hr by fluo-4 AM dye-based FLIPR assay; assay type: functional, cell-based
Chain of Muscarinic acetylcholine receptor M3 (P20309 whole entry): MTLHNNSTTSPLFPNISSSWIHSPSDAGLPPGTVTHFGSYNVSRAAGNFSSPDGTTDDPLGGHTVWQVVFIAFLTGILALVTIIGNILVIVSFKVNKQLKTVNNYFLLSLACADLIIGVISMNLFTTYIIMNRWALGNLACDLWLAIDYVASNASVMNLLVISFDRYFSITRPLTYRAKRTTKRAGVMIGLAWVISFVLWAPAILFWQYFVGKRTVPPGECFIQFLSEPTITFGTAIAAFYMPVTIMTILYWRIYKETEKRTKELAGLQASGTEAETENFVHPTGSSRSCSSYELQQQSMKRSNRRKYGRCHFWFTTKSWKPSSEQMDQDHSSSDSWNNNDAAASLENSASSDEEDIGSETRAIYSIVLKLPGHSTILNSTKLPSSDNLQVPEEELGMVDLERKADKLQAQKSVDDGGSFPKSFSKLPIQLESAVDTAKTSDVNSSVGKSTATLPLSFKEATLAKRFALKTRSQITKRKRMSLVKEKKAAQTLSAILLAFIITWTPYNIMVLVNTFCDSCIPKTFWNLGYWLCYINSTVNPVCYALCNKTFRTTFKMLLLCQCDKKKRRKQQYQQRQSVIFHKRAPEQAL

[18] = biological target: T1, D(2) dopamine receptor; test: Antagonist activity at human dopamine D2L receptor expressed in CHO cells assessed as inhibition of dopamine-mediated Ca+2 stimulation pretreated for 10 mins followed by addition of dopamine by fluo-4 AM dye-based FLIPR assay; assay type: cell-based
[19] = biological target: Cytochrome P450 2C19 (Homo sapiens, UniProt P33261); test: Inhibition of recombinant human CYP2C19 expressed in baculosomes preincubated for 10 mins followed by cofactor addition measured every minute for 10 mins using 3-butyryl-7-methoxycoumarin as substrate by CYPEX assay
Chain of Cytochrome P450 2C19 (P33261 whole entry): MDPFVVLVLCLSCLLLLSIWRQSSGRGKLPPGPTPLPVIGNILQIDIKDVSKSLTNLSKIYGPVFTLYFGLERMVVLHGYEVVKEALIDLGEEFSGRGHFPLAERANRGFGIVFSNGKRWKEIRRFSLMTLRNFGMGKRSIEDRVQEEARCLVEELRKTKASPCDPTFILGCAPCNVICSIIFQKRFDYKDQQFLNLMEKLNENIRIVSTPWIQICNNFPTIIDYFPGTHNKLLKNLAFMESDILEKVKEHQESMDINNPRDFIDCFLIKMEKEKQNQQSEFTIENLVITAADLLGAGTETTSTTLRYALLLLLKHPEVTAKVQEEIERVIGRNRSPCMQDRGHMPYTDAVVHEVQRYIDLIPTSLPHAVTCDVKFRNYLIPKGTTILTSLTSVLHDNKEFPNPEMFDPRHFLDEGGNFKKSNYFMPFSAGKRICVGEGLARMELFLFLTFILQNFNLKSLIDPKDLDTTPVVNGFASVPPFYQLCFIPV

[20] = Apparent permeability across apical to basolateral side in human Caco2 cells; assay type: ADME, cell-based; details: Caco-2
[21] = biological target: T4, D(3) dopamine receptor; test: Displacement of [3H]-spiperone from human dopamine D3 receptor expressed in CHO-K1 cell membranes after 90 mins by liquid scintillation counter method
[22] = biological target: Cytochrome P450 2D6 (Homo sapiens, UniProt P10635); test: Inhibition of recombinant human CYP2D6 expressed in baculosomes preincubated for 10 mins followed by cofactor addition measured every minute for 10 mins using 4-methylaminomethyl-7-methoxycoumarin as substrate by CYPEX assay
Chain of Cytochrome P450 2D6 (P10635 whole entry): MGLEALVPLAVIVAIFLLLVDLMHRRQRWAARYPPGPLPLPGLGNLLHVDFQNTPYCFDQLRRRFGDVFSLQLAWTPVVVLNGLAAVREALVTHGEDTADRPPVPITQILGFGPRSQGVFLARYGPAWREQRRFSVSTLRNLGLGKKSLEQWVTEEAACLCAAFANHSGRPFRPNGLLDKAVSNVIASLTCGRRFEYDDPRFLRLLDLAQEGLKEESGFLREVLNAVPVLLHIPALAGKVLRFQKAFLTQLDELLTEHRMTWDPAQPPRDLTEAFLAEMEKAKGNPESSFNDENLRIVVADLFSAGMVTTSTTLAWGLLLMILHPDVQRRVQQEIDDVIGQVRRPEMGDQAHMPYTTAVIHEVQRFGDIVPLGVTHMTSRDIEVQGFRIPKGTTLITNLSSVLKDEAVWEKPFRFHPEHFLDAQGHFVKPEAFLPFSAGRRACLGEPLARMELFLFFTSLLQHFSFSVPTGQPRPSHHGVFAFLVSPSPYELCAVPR

[23] = in vivo; details: Sprague-Dawley, rat
Description: Hepatic extraction ratio in portal vein cannulated Sprague-Dawley rat model

[24] = Fraction absorbed in portal vein cannulated Sprague-Dawley rat model; details: in vivo
[25] = Fraction unbound in Sprague-Dawley rat blood
[26] = Solubility of compound; assay type: physicochemical
[27] = in vitro; details: human, Caco-2
Description: Efflux ratio of permeability across basolateral to apical side in human Caco2 cells

[28] = biological target: T6, D(4) dopamine receptor (Homo sapiens, UniProt P21917); test: Binding affinity to dopamine D4 receptor (unknown origin)
T6 sequence (P21917 whole entry): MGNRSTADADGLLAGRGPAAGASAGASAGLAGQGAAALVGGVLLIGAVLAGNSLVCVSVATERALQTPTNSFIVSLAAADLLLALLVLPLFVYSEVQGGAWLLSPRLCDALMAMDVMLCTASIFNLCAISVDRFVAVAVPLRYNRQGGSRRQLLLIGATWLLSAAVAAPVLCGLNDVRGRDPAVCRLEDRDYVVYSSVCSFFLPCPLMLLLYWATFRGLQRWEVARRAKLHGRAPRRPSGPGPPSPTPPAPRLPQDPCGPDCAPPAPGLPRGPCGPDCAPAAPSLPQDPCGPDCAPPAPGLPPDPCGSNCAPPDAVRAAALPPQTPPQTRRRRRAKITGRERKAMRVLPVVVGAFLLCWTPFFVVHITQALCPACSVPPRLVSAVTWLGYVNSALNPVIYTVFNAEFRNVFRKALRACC

[29] = Permeability across apical to basolateral side in human Caco2 cells; details: Caco-2, permeability

T1 sequence (P14416 whole entry): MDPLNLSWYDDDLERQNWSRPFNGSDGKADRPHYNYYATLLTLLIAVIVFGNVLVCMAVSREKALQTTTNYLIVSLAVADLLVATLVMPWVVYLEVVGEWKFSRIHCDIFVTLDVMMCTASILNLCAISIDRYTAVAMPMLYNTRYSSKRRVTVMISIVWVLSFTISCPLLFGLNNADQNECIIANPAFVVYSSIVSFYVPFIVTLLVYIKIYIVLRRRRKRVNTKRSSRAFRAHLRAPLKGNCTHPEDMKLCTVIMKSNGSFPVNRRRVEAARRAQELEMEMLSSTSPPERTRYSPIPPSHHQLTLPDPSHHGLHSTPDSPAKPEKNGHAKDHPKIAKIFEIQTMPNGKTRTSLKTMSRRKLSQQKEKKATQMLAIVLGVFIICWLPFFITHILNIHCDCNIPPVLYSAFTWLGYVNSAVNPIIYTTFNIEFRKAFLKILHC

**Q.** What does the source list for Cc1ncoc1-c1nnc(SCCCN2CC3CCN(c4ccc(C(F)(F)F)cc4F)C3C2)n1C (stereo in doubt; 8b)?
**A.** fraction unbound [1]: 0.014; Ki [2]: 63.1 nM; bioavailability [3]: 73%; Ki [4]: 110 nM; IC50 [5]: > 3000 nM; IC50 [6]: 398 nM; IC50 [7]: > 3000 nM; microsomal CLint at 0.5 µM [8]: 177 µL/min/mg; Ki [9]: 1.58 nM; IC50 [10]: > 3000 nM; IC50 [11]: > 3000 nM; clearance [12]: 20 mL/min/kg; microsomal CLint at 0.5 µM [13]: 43 µL/min/mg; half-life [14]: 1.5 h; Vd [15]: 1.1 L/kg; efflux ratio [16]: 0.55; Ki [17]: 245 nM; Ki [18]: 50.1 nM; IC50 [19]: > 3000 nM; Papp A→B [20]: 5.5 ×10⁻⁶ cm/s; Ki [21]: 1.26 nM; IC50 [22]: > 3000 nM; hepatic extraction ratio [23]: 0.07; Fa [24]: 79%; fraction unbound [25]: 0.0025

**Q.** For Cn1c(SCCCN2CC3CCN(c4ccc(C(F)(F)F)cc4)C3C2)nnc1-c1cc[nH]c(=O)c1 (stereo in doubt; 55b), which fraction unbound [1] is on record?
**A.** Its fraction unbound is 0.022.

**Q.** What about the Ki [2] of the same compound?
**A.** Its Ki is 631 nM.

**Q.** And the bioavailability [3]?
**A.** Its bioavailability is 3%.

**Q.** And the Ki [4]?
**A.** Its Ki is 1740 nM.

**Q.** And the IC50 [5]?
**A.** The IC50 was greater than 20000 nM.

**Q.** What about the IC50 [6] of the same compound?
**A.** Its IC50 is 2510 nM.

**Q.** And the IC50 [7]?
**A.** Its IC50 is greater than 20000 nM.

**Q.** And the microsomal CLint at 0.5 µM [8]?
**A.** Its microsomal CLint at 0.5 µM is 33 µL/min/mg.

**Q.** And the solubility [26]?
**A.** The solubility was 200 µg/mL (≈ 396 µM).

**Q.** And the IC50 [10]?
**A.** Its IC50 is greater than 20000 nM.

**Q.** And the IC50 [11]?
**A.** The IC50 was greater than 20000 nM.

**Q.** What about the clearance [12] of the same compound?
**A.** The clearance was 37 mL/min/kg.

**Q.** And the microsomal CLint at 0.5 µM [13]?
**A.** Its microsomal CLint at 0.5 µM is 47 µL/min/mg.

**Q.** What about the efflux ratio [27] of the same compound?
**A.** Its efflux ratio is 3.8.

**Q.** And the half-life [14]?
**A.** The half-life was 2.1 h.

**Q.** What about the Vd [15] of the same compound?
**A.** The Vd was 4.2 L/kg.

**Q.** What about the Ki [17] of the same compound?
**A.** The Ki was 1100 nM.

**Q.** And the IC50 [19]?
**A.** The IC50 was greater than 20000 nM.

**Q.** And the Ki [21]?
**A.** Its Ki is 7.94 nM.

**Q.** And the IC50 [22]?
**A.** Its IC50 is greater than 20000 nM.

**Q.** What about the hepatic extraction ratio [23] of the same compound?
**A.** Its hepatic extraction ratio is 0.4.

**Q.** And the Fa [24]?
**A.** The Fa was 5%.

**Q.** And the Ki [28]?
**A.** Its Ki is 15800 nM.

**Q.** And the Papp A→B [29]?
**A.** Its Papp A→B is 4.2 ×10⁻⁶ cm/s.

**Q.** What about the fraction unbound [25] of the same compound?
**A.** Its fraction unbound is 0.044.
